≈ marks a conversion by molar mass, not a printed value. Entries after “also recorded” stand apart in the source; their conditions may differ.
Experiments:
[1] = Solubility in 10% v/v propylene glycol; type: physicochemical; conditions: 10% v/v propylene glycol aqueous solution, aqueous with cosolvent or surfactant or cyclodextrin, thermodynamic from solid, ambient conditions, stirred 5 hours, read-out: Solubility, Concentration
Protocol: The potential of temozolomide esters used as topical and transdermal prodrugs is first proven through studies of their solubility. That is a decreased trend of solubility in an aqueous solution with increase of the length of the ester hydrocarbon alkyl chain of the temozolomide esters. It is clear the solubility constantly decreases from the methyl ester to the octyl ester, while temozolomide itself is 3.0 mg/ml similar to that of the methyl ester. […] Similarly to the esters, the solubility of the temozolomide amide products in the aqueous solution is considerably lower than that of temozolomide.
The solubility of temozolomide and the temozolomide esters was determined in 10% v/v propylene glycol by stirring an excess of the solid products at room temperature for 5 hours. The mixtures were then filtered, diluted with sample solvent and analysed using HPLC.

pig liver esterase = assay: Enzymatic metabolizing study with pig liver esterase (1H NMR); type: in vitro ADME; conditions: 37° C., pH 7.4 buffer; ester complete at 10 minutes; amide followed up to 8 hours
Protocol: First the present invention establishes the metabolised process of the temozolomide esters by pig liver esterase in vitro. ^1H NMR spectra 1 (FIG. 1) records the degradation profile of the temozolomide methyl ester under incubation condition (Rathbone D L, 1999). […] Finally, at 10 minutes, the intensity of the singlet at 3.58 ppm grows to the grade similar to the original of the two singlets at 3.63 and 3.65 ppm, which while are completely eliminated. […] This discovery establishes the solid foundation for the temozolomide esters to be considered as the potential anticancer pro-drugs.
Enzymatic metabolizing studies of the temozolomide methyl ester was carried out using pig liver esterase enzyme from Sigma [a suspension in 3.2 M ammonium sulphate solution pH 8; 200 unit/mg protein (14 mg protein/ml)]. • A. To a NMR tube 2 mg of the temozolomide methyl ester was added, followed by 0.2 ml of d6-DMSO, 0.5 ml D2O of pH 7.4 sulphate buffer and finally 50 μl of the enzyme solution. Record a ^1H NMR spectrum immediately, then the mixture was incubated at 37° C. and record a ^1H NMR spectrum at each 5 minutes time interval. […] The samples were dissolved in d6-DMSO in an NMR tube, 50 μl of enzyme solution was added and the solution incubated at 37° C.

[2] = In vitro permeation, Franz diffusion cell, silicone membrane; type: in vitro ADME; conditions: 37° C., 8 h, FIGS. 3-5
Description: (§1) Jacketed Franz-type diffusion cells were used throughout the study and the barrier (12) (skin or silicone membrane) was mounted between the two chambers (14, 16) (2.8–3.4 cm^2 available surface area) with the dermal side in contact with the receiver solution (FIG. 2). The diffusion chambers (10) comprised a barrier of skin or silicone membrane (12) mounted between two chambers (14, 16). A cap (18) formed the donor compartment (14). The second receptor compartment (16) contained a receptor cell (20) with a stirring bar (22), sampling port (24) and cover (26). The stirring bar (22) was stirred by means of a magnet plate (28) having a rotating magnet. The receptor compartment comprised a water jacket (30) having a water inlet (32) and a water outlet (34).
(§2) Three types of materials were used in permeation studies. • 1. Silicone membrane (Silastic Medical Grade, 500-5, Dow Corning 0.005 in thick) was cut into circular sections (2 cm diameter) and washed with double distilled water prior to use. • 2. Full-thickness rat skin was obtained from Male Wistar rats aged 10 to 12 weeks and weighing 250 to 300 g, which were sacrificed by cervical dislocation, the abdomen shaved and the intact skin removed by dissection. Following removal of fat tissue, the skin was cut into circular pieces and used immediately. • 3. Samples of adult human epidermis were purchased from the Stephen Kirby Skin Bank (UK). The samples were from the leg, were stored at −18° C. and used within one week. Experiments
The membrane (as detailed above) was mounted on the diffusion cell (10), on which the surface area available for diffusion of each cell was about 2.8–3.4 cm^2. The cell cap (18) was placed on the membrane (12), and it was sealed with Parafilm® connecting the cell cap, membrane, and receptor cell. The capacity of each receptor cell was around 25–26 ml, which was filled with receptor solution and was completely in contact with the membrane sheet. During the course of experiment, the solution was continuously stirred by teflon-coated magnetic bar (22) placed in the cell (20). The temperature was maintained at 37° C. by a thermostatic water pump that circulated the water through the jacket (30) surrounding the cell body. The system was allowed to equilibrate under these conditions for half an hour. Finally, the prepared sample solution (2 ml) was added into the donor cap cell, and it was sealed with Parafilm® to minimize the evaporation of donor solution. 1 ml of receptor solution was removed every 30 minutes for 5 hours and then every 60 minutes for a further 3 hours. The volumes withdrawn were always replaced with equal volumes of fresh receptor solution to maintain constant volume. The concentration of each sample solution was determined by using HPLC.
For every sample, six determinations were performed on human and rat skin, and three determinations were carried out through artificial silicone membrane.
As stated above, after the removal of receptor solution, the receiver compartment was refilled with an identical volume of receptor fluid. This causes of the dilution of receptor solution leading to an under determination of the sample concentration. As a consequence, it was necessary to mathematically correct each successive sample concentrations, in the present invention, which was determined by applying the following equation:
(§3) [formula] where Ct is the actual current concentration of drug in the receptor phase at time t, Cmt is the apparent (i.e. measured) current concentration of drug in the receptor phase, Vs is the sample volume withdrawn for analysis, Vr is the volume of receptor solution, and ΣCm is the summed total of the previous measured concentrations.
(§4) Finally, the amount of drug penetrating the skin per unit area was calculated by dividing the obtained concentrations by the surface area available for diffusion cell and this value was different for each individual cell. […]

SHG-44 (human glioma) = assay: In vitro tumour cell growth inhibition (MTT), SHG-44; type: cell-based; conditions: Homo sapiens, SHG-44, Table 2 experiment, 96 h
Protocol: (§5) Temozolomide (white powder), temozolomide acid (white powder) and temozolomide-8-carboxylate hexyl (white scale crystal) were made in house. For the estimation of in vitro tumour cell growth inhibition, MV3 (human melanoma), M14 (human melanoma), B16 and B16-BL6 (mouse melanoma), SHG-44, TJ899 and TJ905 (human glioma), MCF-7 (human breast), HCT-8 (human colon), A549 (human non small lung), Bel7402 (human hepatocellulor), and BGC-823 (human stomach) were used. All tumour cells were cultured in RPMI-1640 medium supplemented with 10% fetal bovine serum (FBS) at 37° C. in a humidified 5% CO2 incubator.
(§6) After being harvested from culture flasks, a cell suspension of 1×10^4/ml was made by using 1640 RPMI medium supplemented with 10% fetal bovine serum. 100 μl (contains 1000 tumour cells) of the cell suspension was seeded per well of 96-well flat-bottom Costar culture plates at 37° C. in a humidified 5% CO2 incubator for 24 hrs before introducing drugs. Each tested compounds was made for five different concentrations and 100 μl of the each concentration was introduced into parallel three wells; control wells were added with 100 μl of plain medium alone; fluorouracil (a chemotherapeutic antitumour drug) was used as the positive control. Cells were then incubated for 96 h. Proliferative response and cell death were determined using MTT (3-(4,5-dimethylthiazolyl)-2,5-diphenyl-tetrazolium bromide) assay.
(§7) MTT assay: Following incubation of cells with the tested compounds for 96 h, 100 μl of 0.4 mg/ml MTT in RPMI 1640 was added to each well and the plate was incubated at 37° C. for 4 h. The plate was then centrifuged and followed by removal of medium. 150 μl of DMSO was then added to dissolve formazan crystal. DMSO-added plates were placed on a plate shaker for 5 min and absorbance was measured spectrophotometrically at 540 nm (with reference wavelength at 450 nm) using a Benchmark microtiter plate reader (Bio-Rad 550, Bio-Rad Laboratories, CA, U.S.A.).
(§8) The IC50 was calculated from the curve of the tested compound concentrations against the inhibition rate of the tumour cells. Table 1 summarized the experiment results by using six human cancer cell lines, HCT-8 (colon carcinoma), A549 (non small lung carcinoma), MCF-7 (breast), Bel7402 (hepatocellulor carcinoma), BGC-823 (stomach adenocarcinoma), and MV3 (melanoma). Table 2 summarized the results from the experiment results by using two human melanoma cell lines, MV3 and M14, two mouse melanoma cell lines, B16 and B16-BL6, and three human glioma cell lines, TJ899, SHG-44 and TJ905.

TLX5 lymphoma cell line = conditions: Tsang 1990; cited from earlier work
[3] = test system: Bel7402 (human hepatocellulor); assay: In vitro tumour cell growth inhibition (MTT), Bel-7402; type: cell-based; conditions: Table 1 experiment, 96 h
Protocol: as §5, §6, §7
(§9) The IC50 was calculated from the curve of the tested compound concentrations against the inhibition rate of the tumour cells. […]

B16 (mouse melanoma) = assay: In vitro tumour cell growth inhibition (MTT), B16; type: cell-based; conditions: Mus musculus, Table 2 experiment, 96 h
Protocol: as §5, §6, §7, §8

HCT-8 (human colon) = assay: In vitro tumour cell growth inhibition (MTT), HCT-8; type: cell-based; conditions: Table 1 experiment, 96 h
Protocol: as §5, §6, §7, §9

M14 (human melanoma) = assay: In vitro tumour cell growth inhibition (MTT), M14; type: cell-based; conditions: Homo sapiens, Table 2 experiment, 96 h
Protocol: as §5, §6, §7, §8

TJ899 (human glioma) = assay: In vitro tumour cell growth inhibition (MTT), TJ899; type: cell-based; conditions: Homo sapiens, Table 2 experiment, 96 h
Protocol: as §5, §6, §7, §8

MCF-7 (human breast) = assay: In vitro tumour cell growth inhibition (MTT), MCF-7; type: cell-based; conditions: MCF7, Table 1 experiment, 96 h
Protocol: as §5, §6, §7, §9

TJ905 (human glioma) = assay: In vitro tumour cell growth inhibition (MTT), TJ905; type: cell-based; conditions: Homo sapiens, Table 2 experiment, 96 h
Protocol: as §5, §6, §7, §8

[4] = test system: A549 (human non small lung); assay: In vitro tumour cell growth inhibition (MTT), A549; type: cell-based; conditions: Table 1 experiment, 96 h
Protocol: as §5, §6, §7, §9

BGC-823 (human stomach) = assay: In vitro tumour cell growth inhibition (MTT), BGC-823; type: cell-based; conditions: Table 1 experiment, 96 h
Protocol: as §5, §6, §7, §9

B16-BL6 (mouse melanoma) = assay: In vitro tumour cell growth inhibition (MTT), B16-BL6; type: cell-based; conditions: Mus musculus, B16-BL6, Table 2 experiment, 96 h
Protocol: as §5, §6, §7, §8

MV3 (human melanoma) = assay: In vitro tumour cell growth inhibition (MTT), MV3; type: cell-based; conditions: Homo sapiens, 96 h
Protocol: as §5, §6, §7, §8

[5] = Measured log P, octanol/water; type: physicochemical; conditions: octanol/water system; read-out: measured Log P (mLog P)
Protocol: Log P values of temozolomide (1) and the temozolomide esters were calculated using TSAR (Oxford Molecular, Oxford, UK), Molecular Modeling Pro (ChemSW, Fairfield, Calif.) and Chem Office 7.0 (CambridgeSoft, Cambridge, UK) programmes. Calculated Log P values were verified for temozolomide and the temozolomide hexyl ester by measuring the octanol/water coefficient (Table 4).

[6] = In vitro permeation and metabolism, Franz diffusion cell, human skin; type: in vitro ADME
Description: as §1, §2
The membrane (as detailed above) was mounted on the diffusion cell (10), on which the surface area available for diffusion of each cell was about 2.8–3.4 cm^2. The cell cap (18) was placed on the membrane (12), and it was sealed with Parafilm® connecting the cell cap, membrane, and receptor cell. […] The concentration of each sample solution was determined by using HPLC. […]
As stated above, after the removal of receptor solution, the receiver compartment was refilled with an identical volume of receptor fluid. […] As a consequence, it was necessary to mathematically correct each successive sample concentrations, in the present invention, which was determined by applying the following equation:
as §3, §4

Structure (SMILES) | solubility at 5 h [1] | Degradation to temozolomide acid by pig liver esterase (pig liver esterase) | Permeation through synthetic silicone membrane [2] | IC50 (SHG-44 (human glioma)) | in vitro IC50 compared with temozolomide (TLX5 lymphoma cell line) | IC50 [3] | IC50 (B16 (mouse melanoma)) | IC50 (HCT-8 (human colon)) | IC50 (M14 (human melanoma)) | IC50 (TJ899 (human glioma)) | IC50 (MCF-7 (human breast)) | IC50 (TJ905 (human glioma)) | IC50 [4] | IC50 (BGC-823 (human stomach)) | IC50 (B16-BL6 (mouse melanoma)) | IC50 (MV3 (human melanoma); Table 1 experiment) | IC50 (MV3 (human melanoma); Table 2 experiment (separate)) | logP [5] | Permeation through human skin ([6]; 37° C., FIG. 9) | Metabolism within human skin to temozolomide acid ([6]; human skin)
COC(=O)c1ncn2c(=O)n(C)nnc12 [Temozolomide methyl ester, Methyl 3,4-dihydro-3-methyl-4-oxoimidazo[5,1-d]-1,2,3,5-tetrazine-8-carboxylate] | 3000 µg/mL (≈ 14300 µM) | completely degraded and released temozolomide acid | can not pass through the synthetic membrane easily |  |  |  |  |  |  |  |  |  |  |  |  |  |  |  |  | 
Cn1nnc2c(C(=O)O)ncn2c1=O [temozolomide acid, 3,4-dihydro-3-methyl-4-oxoimidazo[5,1-d]-1,2,3,5-tetrazine-8-carboxylic acid] |  |  |  | 7.07 µg/mL (≈ 36.2 µM) | almost identical to that of temozolomide | 17 µg/mL (≈ 86.9 µM) | 36.2 µg/mL (≈ 185 µM) | 18.5 µg/mL (≈ 94.9 µM) | 99 µg/mL (≈ 507 µM) | > 100 µg/mL | 14.9 µg/mL (≈ 76.4 µM) | > 100 µg/mL | > 19.5 µg/mL | > 19.5 µg/mL | 43.5 µg/mL (≈ 223 µM) | 14.6 µg/mL (≈ 74.9 µM) | 36 µg/mL (≈ 185 µM) |  |  | 
Cn1nnc2c(C(N)=O)ncn2c1=O [Temozolomide, 8-Carbamoyl-3-methylimidazo[5,1-d]-1,2,3,5-tetrazine-4(3H)-one] | 3000 µg/mL (≈ 15500 µM) |  | can not pass through the synthetic membrane easily; also recorded: lowest permeation | 9.04 µg/mL (≈ 46.6 µM) |  |  | 61.9 µg/mL (≈ 319 µM) |  | > 100 µg/mL | > 100 µg/mL |  | > 100 µg/mL |  |  | > 100 µg/mL |  | 7.86 µg/mL (≈ 40.5 µM) | -0.66 |  | 
CCCCNC(=O)c1ncn2c(=O)n(C)nnc12 [Temozolomide n-butyl amide, 3-Methyl-N-(n-butyl)-4-oxoimidazo[5,1-d]-1,2,3,5-tetrazine-8-carboxamide] | 1800 µg/mL (≈ 7190 µM) | no the temozolomide acid was observed; also recorded: gradually decomposed into un-identifiable products without the observation of temozolomide acid |  |  |  |  |  |  |  |  |  |  |  |  |  |  |  |  | notably better than temozolomide | resistant to metabolism
